US20230295201A1 (Gilead Sciences, Inc., priority 2020, published 2023)
Read-outs that look alike come from different tables or passages of the source.

Tests used:
Type in all cases: cell-based
[1] = tested on: RSV strain A2; experiment: RSV HEp-2 EC50 (infectious cytopathic cell protection assay); details: HEp-2 cells, RSV A2, 4 days, read-out: RSV HEp-2 EC50
Description: Antiviral activity against RSV is determined using an infectious cytopathic cell protection assay in HEp-2 cells. In this assay, compounds inhibiting viral infection and/or replication produce a cytoprotective effect against the virus-induced cell killing that can be quantified using a cell viability reagent. The techniques used here are novel adaptations of methods described in published literature (Chapman et al., Antimicrob Agents Chemother. 2007, 51(9):3346-53.)
HEp-2 cells are obtained from ATCC (Manassas, VI) and maintained in MEM media supplemented with 10% fetal bovine serum and penicillin/streptomycin. Cells are passaged twice a week and kept at subconfluent stage. Commercial stock of RSV strain A2 (Advanced Biotechnologies, Columbia, MD) is titered before compound testing to determine the appropriate dilution of the virus stock that generates desirable cytopathic effect in HEp-2 cells.
For antiviral tests, HEp-2 cells are grown in large cell culture flasks to near confluency but not fully so. The compounds to be tested are prediluted in DMSO in 384-well compound dilution plates, either in an 8 or 40 sample per plate standardized dose response format. 3-fold serial dilution increments of each test compound are prepared in the plates and test samples are transferred via acoustic transfer apparatus (Echo, Labcyte) at 100 nL per well into cell culture assay 384-well plates. Each compound dilution is transferred in single or quadruplicate samples into dry assay plates, which are stored until assay is ready to go. The positive and negative controls are laid out in opposite on ends of the plate in vertical blocks (1 column).
Subsequently, an infectious mixture is prepared using an appropriate dilution of virus stock previously determined by titration with cells at a density of 50,000/ml and 20 µL/well is added to test plates w/compounds via automation (uFlow, Biotek). Each plate includes negative and positive controls (16 replicates each) to create 0% and 100% virus inhibition standards, respectively. Following the infection with RSV, testing plates are incubated for 4 days in a 37° C. cell culture incubator. After the incubation, a cell viability reagent, Cell TiterGlo (Promega, Madison, WI) is added to the assay plates, which are incubated briefly, and a luminescent readout is measured (Envision, Perkin Elmer) in all the assay plates. The RSV-induced cytopathic effect, percentage inhibition, is determined from the levels of remaining cell viability. […] Various potent anti-RSV tool compounds are used as positive controls for antiviral activity.

[2] = tested on: RSV A2; experiment: RSV NHBE EC50 (RSV A2 antiviral assay in normal human bronchial epithelial cells); details: NHBE cells, RSV A2, 4 days, read-out: RSV NHBE EC50
Description: Normal human bronchial epithelial (NHBE) cells were purchased from Lonza (Walkersville, MD, Cat #CC-2540) and cultured in Bronchial Epithelial Growth Media (BEGM) (Lonza, Walkersville, MD, Cat #CC-3170). The cells were passaged 1-2 times per week to maintain <80% confluency. The NHBE cells were discarded after 6 passages in culture.
To conduct the RSV A2 antiviral assay, NHBE cells were plated in 96-well plates at a density of 7,500 cells per well in BEGM and allowed to attach overnight at 37° C. Following attachment, 100 μL of cell culture media was removed and 3-fold serially diluted compound was added using a Hewlett-Packard D300 Digital Dispenser. The final concentration of DMSO was normalized to 0.05%. Following compound addition, the NHBE cells were infected by the addition of 100 μL of RSV A2 at a titer of 1×10^4.5 tissue culture infectious doses/mL in BEGM and then incubated at 37° C. for 4 days. […] The mixtures were incubated for 10 minutes at 25° C., and the luminescence signal was quantified on an Envision luminescence plate reader.

[3] = tested on: DENV2 replicon; experiment: DENV-2 Huh-7 Rep EC50 (replicon luminescence); details: read-out: DENV-2 Huh-7 Rep EC50
Description: In 384 well plates (Greiner, Cat #781091), compounds were acoustically transferred at 200 nl per well in a 8 compound (4 replicates) or 40 compound dose response format (3 replicates). For all plates tested, Balapiravir, GS-5734 and NITD008 were included as positive inhibition controls alongside 0% inhibition, DMSO-only negative control wells. Following compound addition, Huh-7 cells containing the DENV2 replicon construct were harvested following standard cell culture procedures and were adjusted to a concentration of 1.25E5 cells/mL in cell culture media composed of cDMEM without genticin. 40 μL of the cell stock was then added to each well for a final cell density of 5,000 cells/well. Cell and compound mixtures were incubated at 37° C./5% CO2 for 48 hours. Prior to harvesting cells, EnduRen Live Cell Substrate (Promega, Cat #E6481) was prepared by suspending 3.4 mg into 100 uL of DMSO to generate a 60 mM stock solution. The stock solution was then diluted 1:200 in pre-warmed cDMEM and 10 uL of this diluted solution was added to each well of the 384 well plates. Plates were then centrifuged at 500 rpm briefly and were placed on a plate shaker for 2 min. Following mixing, plates were incubated at […] for 1.5 hours prior to measuring luminescence on an Envision luminometer.

[4] = tested on: HRV16; experiment: HRV16 HELA EC50 (cytopathic effect in H1-HeLa cells)
Description: H1-HeLa cells, cultured in complete DMEM medium containing 10% heat-inactivated FBS and 1% Penicillin/Streptomycin, were seeded in 96 well plates at 3000 cells/well one day prior to compound dosing and infection. The antiviral activity of each compound was measured in triplicate. Compounds were added directly to the cell cultures in serial 3-fold dilutions using the HP300 digital dispenser (Hewlett Packard, Palo Alto, CA) immediately prior to infection. The plates were transferred to BSL-2 containment and the appropriate dilution of virus stock, previously determined by titration and prepared in cell culture media, was added to test plates containing cells and serially diluted compounds. Each plate included 6 wells of infected untreated cells and 6 wells of uninfected cells that served as 0% and 100% virus inhibition control, respectively. Following the infection, test plates were incubated for 96 h in a tissue culture incubator set to 33° C./5% CO2. Following incubation, the H1-HeLa cells were removed from incubation and allowed to equilibrate to 25° C. Cell viability was determined by removing 100 μL of culture medium and adding 100 μL of Cell-Titer Glo viability reagent. The mixtures were incubated on a shaker for 10 minutes at 25° C., and the luminescence signal was quantified on an Envision luminescence plate reader.

[5] = human respiratory syncytial virus, 96 h
[6] = human respiratory syncytial virus, HEp-2, 96 h
[7] = human respiratory syncytial virus, NHBE, 96 h
[8] = 96 h, H1-HeLa cells, 33° C., read-out: HRV16 HELA EC50
[9] = Dengue virus, DENV2, Huh-7, 48 h, Huh-7 replicon cells, 48 hours

| Structure (SMILES) | EC50 [1, 6] [nM] | EC50 [2, 7] [nM] | EC50 [3, 9] [nM] | further results |
| --- | --- | --- | --- | --- |
| CCC(CC)COC(=O)[C@H](C)NP(=O)(N[C@@H](C)C(=O)OC1CCCCC1)OC[C@@]1(C#N)O[C@@H](c2ccc3c(N)ncnn23)[C@H](O)[C@@H]1O (mixture of isomers) [Example 30, cyclohexyl ((((2R,3S,4R,5S)-5-(4-aminopyrrolo[2,1-f][1,2,4]triazin-7-yl)-2-cyano-3,4-dihydroxytetrahydrofuran-2-yl)methoxy)(((S)-1-(2-ethylbutoxy)-1-oxopropan-2-yl)amino)phosphoryl)-L-alaninate] | – | – | – | EC50 [1, 5]: 844 nM; EC50 [2, 5]: 44 nM; EC50 ([3]; Dengue virus, DENV2, Huh-7, 48 h): 60700 nM |
| C[C@H](NP(=O)(OC[C@@]1(C#N)O[C@@H](c2ccc3c(N)ncnn23)[C@H](O)[C@@H]1O)Oc1ccccc1)C(=O)O[C@@H]1CCN(C)C1 (mixture of isomers) [Example 61, (R)-1-methylpyrrolidin-3-yl ((((2R,3S,4R,5S)-5-(4-aminopyrrolo[2,1-f][1,2,4]triazin-7-yl)-2-cyano-3,4-dihydroxytetrahydrofuran-2-yl)methoxy)(phenoxy)phosphoryl)-L-alaninate] | 2290 | ≥ 5000 | – | EC50 [4, 8]: 23200 nM |
| C[C@H](NP(=O)(OC[C@@]1(C#N)O[C@@H](c2ccc3c(N)ncnn23)[C@H](O)[C@@H]1O)Oc1ccccc1)C(=O)O[C@@H]1CCOC1 (mixture of isomers) [Example 68, (R)-Tetrahydrofuran-3-yl ((((2R,3S,4R,5S)-5-(4-aminopyrrolo[2,1-f][1,2,4]triazin-7-yl)-2-cyano-3,4-dihydroxytetrahydrofuran-2-yl)methoxy)(phenoxy)phosphoryl)-L-alaninate] | 247 | – | – | EC50 [4, 8]: 4720 nM |
| C[C@H](N[P@@](=O)(OC[C@@]1(C#N)O[C@@H](c2ccc3c(N)ncnn23)[C@H](O)[C@@H]1O)Oc1ccccc1)C(=O)OC1CCCCC1 (single isomer, unassigned) [Example 5] | 2740 | 630 | – | EC50 [4, 8]: 654 nM |
| C[C@H](NP(=O)(OC[C@@]1(C#N)O[C@@H](c2ccc3c(N)ncnn23)[C@H](O)[C@@H]1O)Oc1ccccc1)C(=O)OC1CCCCCCC1 (single isomer, unassigned) [Example 172] | – | > 516 | 31400 | EC50 [1]: 1450 nM |
| C[C@H](NP(=O)(OC[C@@]1(C#N)O[C@@H](c2ccc3c(N)ncnn23)[C@H](O)[C@@H]1O)Oc1ccccc1)C(=O)OC1CCC(F)(F)CC1 (single isomer, unassigned) [Example 175] | – | – | – | EC50 [1]: 801 nM; EC50 [2]: 539 nM; EC50 ([3]; Huh-7 replicon cells, 48 hours): > 100000 nM |
| CCC(CC)COC(=O)[C@H](C)NP(=O)(N[C@@H](C)C(=O)OC1CCCCC1)OC[C@@]1(C#N)O[C@@H](c2ccc3c(N)ncnn23)[C@H](O)[C@@H]1O (single isomer, unassigned) [Example 228] | – | – | – | EC50 [2]: 2040 nM; EC50 ([4]; H1-HeLa cells, 96 h, 33° C.; read-out: HRV16 HELA EC50): 4720 nM |
| CC(C)OC(=O)[C@H](C)NP(=O)(OC[C@@]1(C#N)O[C@@H](c2ccc3c(N)ncnn23)[C@H](O)[C@@H]1O)Oc1ccc(C(=O)N(C)C)cc1 (stereo partly drawn) [Example 43, Isopropyl ((((2R,3S,4R,5S)-5-(4-aminopyrrolo[2,1-f][1,2,4]triazin-7-yl)-2-cyano-3,4-dihydroxytetrahydrofuran-2-yl)methoxy)(4-(dimethylcarbamoyl)phenoxy)phosphoryl)-L-alaninate] | 55300 | ≥ 5000 | > 100000 | – |
| C[C@H](NP(=O)(OC[C@@]1(C#N)O[C@@H](c2ccc3c(N)ncnn23)[C@H](O)[C@@H]1O)Oc1ccccc1)C(=O)OCC12CCN(CC1)CC2 (stereo partly drawn) [Example 213, quinuclidin-4-ylmethyl ((((2R,3S,4R,5S)-5-(4-aminopyrrolo[2,1-f][1,2,4]triazin-7-yl)-2-cyano-3,4-dihydroxytetrahydrofuran-2-yl)methoxy)(phenoxy)phosphoryl)-L-alaninate] | 3840 | > 5000 | > 100000 | – |
| CCC(CC)COC(=O)CNP(=O)(NCC(=O)OCC(CC)CC)OC[C@@]1(C#N)O[C@@H](c2ccc3c(N)ncnn23)[C@H](O)[C@@H]1O [Example 226, 2-Ethylbutyl ((((2R,3S,4R,5S)-5-(4-aminopyrrolo[2,1-f][1,2,4]triazin-7-yl)-2-cyano-3,4-dihydroxytetrahydrofuran-2-yl)methoxy)((2-(2-ethylbutoxy)-2-oxoethyl)amino)phosphoryl)glycinate] | – | – | – | EC50 [1, 5]: 1910 nM; EC50 [2, 5]: 2550 nM |
| C[C@H](NP(=O)(OC[C@@]1(C#N)O[C@@H](c2ccc3c(N)ncnn23)[C@H](O)[C@@H]1O)Oc1ccccc1)C(=O)OCC1CCCCC1 (stereo partly drawn) [Example 246, cyclohexylmethyl ((((2R,3S,4R,5S)-5-(4-aminopyrrolo[2,1-f][1,2,4]triazin-7-yl)-2-cyano-3,4-dihydroxytetrahydrofuran-2-yl)methoxy)(phenoxy)phosphoryl)-L-alaninate] | 35 | 41 | 5110 | – |
| COC(=O)[C@H](C)NP(=O)(OC[C@@]1(C#N)O[C@@H](c2ccc3c(N)ncnn23)[C@H](O)[C@@H]1O)Oc1cccnc1 (stereo partly drawn) [Example 249, methyl ((((2R,3S,4R,5S)-5-(4-aminopyrrolo[2,1-f][1,2,4]triazin-7-yl)-2-cyano-3,4-dihydroxytetrahydrofuran-2-yl)methoxy)(pyridin-3-yloxy)phosphoryl)-L-alaninate] | – | ≥ 5000 | > 50000 | – |
